Columns and labels:
Type in all cases: in vivo
[1] = system: Matricaria inodora (MATIN); experiment: Post-emergence herbicidal action against MATIN
Experimental: Seeds of monocotyledonous and dicotyledonous weeds and crop plants are placed in sandy loam in plastic or organic planting pots, covered with soil and cultivated in a greenhouse under controlled growth conditions. 2 to 3 weeks after sowing, the test plants are treated at the one-leaf stage. The compounds of the invention, formulated in the form of wettable powders (WP) or as emulsion concentrates (EC), are then sprayed onto the green parts of the plants as aqueous suspension or emulsion with addition of 0.5% additive at a water application rate of 600 l/ha (converted). After the test plants have been kept in the greenhouse under optimum growth conditions for about 3 weeks, the activity of the preparations is rated visually in comparison to untreated controls. For example, 100% activity=the plants have died, 0% activity=like control plants.
Tables B1 to B13 below show the effects of selected compounds of the general formula (I) according to Table 1 on various harmful plants and at an application rate corresponding to 320 g/ha or lower, which were obtained by the experimental procedure mentioned above. The appendices “a”, “b” and “c” give differentiation by dosage used with otherwise the same harmful plants tested.

[2] = system: Viola tricolor (VIOTR); experiment: Post-emergence herbicidal action against VIOTR
Method in brief: (§1)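 Values are percent visual activity (0% like control, 100% plants dead) after about 3 weeks in the greenhouse. Treatment: post-emergence spray at one-leaf stage, 600 l/ha spray volume, 0.5% additive, doses 320 g/ha or lower.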

[3] = system: Alopecurus myosuroides (ALOMY); experiment: Pre-emergence herbicidal action against ALOMY; conditions: scored visually after about 3 weeks, 100% = plants have died
Method in brief: (§2)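 Pre-emergence soil-surface spray, WP/EC formulation, 0.5% additive, 600 l/ha water, rates of 320 g/ha or lower. Greenhouse, ~3 wk. Visual score, % of untreated control (100% = plants dead, 0% = like control).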

[4] = system: Zea mays (ZEAMX); conditions: crop plant compatibility, 80 g/ha, effect vs untreated controls
Method in brief: (§3)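 One-leaf-stage crops (2–3 wk post-sowing, sandy loam, greenhouse) sprayed on green parts; 0.5% additive, 600 l/ha water. Rated by eye ~3 wk later, % vs untreated; suffixes a/b/c mark different dosages.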

[5] = system: Pharbitis purpurea (PHBPU); experiment: Post-emergence herbicidal action against PHBPU
Method in brief: as §1

[6] = system: Lolium rigidum (LOLRI); experiment: Pre-emergence herbicidal action against LOLRI
Method in brief: as §2

[7] = system: Setaria viridis (SETVI); experiment: Pre-emergence herbicidal action against SETVI
Method in brief: as §2

[8] = system: Lolium rigidum (LOLRI); experiment: Post-emergence herbicidal action against LOLRI
Method in brief: as §1

[9] = system: Avena fatua (AVEFA); experiment: Pre-emergence herbicidal action against AVEFA; conditions: visual scoring after about 3 weeks vs untreated controls
Method in brief: as §2

[10] = system: Pharbitis purpurea (PHBPU); experiment: Pre-emergence herbicidal action against PHBPU; conditions: dosage 320 g/ha
Method in brief: as §2

[11] = system: Echinochloa crus-galli (ECHCG); experiment: Pre-emergence herbicidal action against ECHCG
Method in brief: as §2

[12] = system: Avena fatua (AVEFA); experiment: Post-emergence herbicidal action against AVEFA; conditions: visual rating about 3 weeks after treatment
Method in brief: as §1

[13] = system: Echinochloa crus-galli (ECHCG); experiment: Post-emergence herbicidal action against ECHCG
Method in brief: as §1

[14] = system: Matricaria inodora (MATIN); experiment: Pre-emergence herbicidal action against MATIN; conditions: dosage 320 g/ha
Method in brief: as §2

[15] = system: Verconica persica (VERPE); experiment: Post-emergence herbicidal action against VERPE
Method in brief: as §1

[16] = system: Amaranthus retroflexus (AMARE); experiment: Pre-emergence herbicidal action against AMARE; conditions: visual scoring after about 3 weeks vs untreated controls
Method in brief: as §2

[17] = system: Polygonum convolvulus (POLCO); experiment: Pre-emergence herbicidal action against POLCO
Method in brief: as §2

[18] = system: Viola tricolor (VIOTR); experiment: Pre-emergence herbicidal action against VIOTR
Method in brief: as §2

[19] = system: Alopecurus myosuroides (ALOMY); experiment: Post-emergence herbicidal action against ALOMY; conditions: visual rating about 3 weeks after treatment vs untreated controls (100% = plants have died, 0% = like control plants)
Method in brief: as §1

[20] = system: Setaria viridis (SETVI); experiment: Post-emergence herbicidal action against SETVI
Method in brief: as §1

[21] = system: Verconica persica (VERPE); experiment: Pre-emergence herbicidal action against VERPE
Method in brief: as §2

[22] = system: Oryza sativa (ORYSA); conditions: crop plant compatibility, 80 g/ha, effect in comparison to untreated controls
Method in brief: as §3

[23] = system: Amaranthus retroflexus (AMARE); experiment: Post-emergence herbicidal action against AMARE
Method in brief: as §1

| SMILES | Post-emergence action against MATIN in % ([1]; dosage 320 g/ha) | Post-emergence action against VIOTR in % ([2]; 320 g/ha) | Pre-emergence action against ALOMY ([3]; 80 g/ha) | Pre-emergence action against ALOMY ([3]; 320 g/ha) | Post-emergence action against PHBPU in % ([5]; dosage 320 g/ha) | Pre-emergence action against LOLRI in % ([6]; dosage 320 g/ha) | Pre-emergence action against SETVI in % ([7]; dosage 320 g/ha) | Post-emergence action against LOLRI in % ([8]; dosage 320 g/ha) | Pre-emergence action against AVEFA in % ([9]; 320 g/ha) | Pre-emergence action against PHBPU in % [10] | Pre-emergence action against ECHCG in % ([11]; dosage 320 g/ha) | Post-emergence action against AVEFA in % ([12]; 320 g/ha) | Post-emergence action against ECHCG in % ([13]; dosage 320 g/ha) | Pre-emergence action against MATIN in % [14] | Post-emergence action against VERPE in % ([15]; 320 g/ha, VERPE) | Post-emergence action against VERPE in % ([15]; dosage 80 g/ha) | Pre-emergence action against AMARE in % ([16]; 80 g/ha) | Pre-emergence action against AMARE in % ([16]; 320 g/ha) | Pre-emergence action against POLCO in % ([17]; dosage 320 g/ha) | Pre-emergence action against VIOTR in % ([18]; 320 g/ha, Viola tricolor) | other results |
| --- | --- | --- | --- | --- | --- | --- | --- | --- | --- | --- | --- | --- | --- | --- | --- | --- | --- | --- | --- | --- | --- |
| Cc1cccnc1-n1nc(OCC(=O)O)c(Cl)c1-c1ccc(F)nc1 [Example I-323] | 90% | 90% | 100% | 100% | 80% | 100% | 100% | 90% | 100% | 90% | 100% | 90% | 90% | 100% | 90% | 90% | 100% | 100% | 100% | 100% | Post-emergence action against VIOTR in % ([2]; 80 g/ha): 90%; Post-emergence action against ZEAMX in % [4]: 0%; Pre-emergence action against LOLRI in % ([6]; dosage 80 g/ha): 100%; Post-emergence action against LOLRI in % ([8]; dosage 80 g/ha): 90%; Pre-emergence action against AVEFA in % ([9]; 80 g/ha): 90%; Pre-emergence action against ECHCG in % ([11]; dosage 80 g/ha): 90%; Post-emergence action against AVEFA in % ([12]; 80 g/ha): 90%; Post-emergence action against ECHCG in % ([13]; dosage 80 g/ha): 90%; Pre-emergence action against VIOTR in % ([18]; dosage 80 g/ha): 100%; Post-emergence action against ALOMY in % ([19]; 80 g/ha): 100%; Post-emergence action against ALOMY in % ([19]; 320 g/ha): 100%; Post-emergence action against SETVI in % ([20]; dosage 320 g/ha): 90%; Pre-emergence action against VERPE in % ([21]; dosage 320 g/ha): 100% |
| CS(=O)(=O)CCOC(=O)COc1nn(-c2ccccn2)c(-c2ccc(F)nc2)c1Br [Example I-313] | 90% | 80% | 90% | 100% | 90% | 100% | 100% | 90% | 90% | 80% | 100% | 80% | 90% | 90% | 90% | 90% | 90% | 100% | 80% | 90% | Post-emergence action against MATIN in % ([1]; dosage 80 g/ha): 80%; Post-emergence action against ORYSA in % [22]: 10%; Post-emergence action against AMARE in % ([23]; 80 g/ha, visual rating about 3 weeks after treatment vs untreated controls (100% = plants have died, 0% = like control plants)): 80%; Post-emergence action against AMARE in % ([23]; 320 g/ha, visual rating about 3 weeks after treatment): 90%; Post-emergence action against PHBPU in % ([5]; dosage 80 g/ha): 90%; Pre-emergence action against SETVI in % ([7]; dosage 80 g/ha): 100%; Pre-emergence action against POLCO in % ([17]; dosage 80 g/ha): 80%; Post-emergence action against ALOMY in % ([19]; 80 g/ha): 90%; Post-emergence action against ALOMY in % ([19]; 320 g/ha): 90%; Post-emergence action against SETVI in % ([20]; dosage 80 g/ha): 90%; Post-emergence action against SETVI in % ([20]; dosage 320 g/ha): 90%; Pre-emergence action against VERPE in % ([21]; dosage 80 g/ha): 80%; Pre-emergence action against VERPE in % ([21]; dosage 320 g/ha): 90% |
